Results taken from patent EP3408309B1 (priority 2016, dated 2017).

Columns and labels:
Influenza neuraminidase = details: competitive inhibitors, background statement; cited from earlier work
X31 = assay: Infection inhibition experiment with X31 in BALB/c mice; assay type: in vivo; details: X31 pretreated with inhibitor, intranasal application; loss in body weight over 11 days
Protocol: Figure 7A and 7B show the results of an infection inhibition experiment with X31 in BALB/c mice. X31 was pretreated with inhibitor at the indicated concentrations, followed by intranasal application of the mixture to sedated mice.
In the experiments, the results of which are depicted in Figure 7A, the infection-related loss in body weight was daily controlled for 11 days. IPGSA 3 at 5 mM and 1 mM sialic acid concentrations was compared to infected/untreated, uninfected/untreated or infected/control treated (linPGOH 1) cases. The effect of a cytokine storm related loss in body weight was controled by using UV inactivated X31, which was not infectious, but still able to hemagglutinate as the untreated virus. Error bars indicate the standard error of the mean (n≥5).
Error bars indicate the standard error of the mean (n≥5).

[1] = system: influenza A virus (X-31, H3N2); assay: Hemagglutination inhibition (HAI) assay; assay type: cell-based
[2] = system: fluorescently labeled X31; assay: Microscale thermophoresis binding to whole virus particles; parameters: species or system influenza strain A/Aichi/2/68 H3N2; details: apparent dissociation constant, one site binding fit; read-out: Kdapp Particle
Description: The examined IPGSAs show one binding step. Binding constants are described as apparent dissociation constants (Kdapp) derived from a one site binding fit of each binding step. Error bars indicate the standard error of the mean (n≥3).

Compound	IC50 values, enzyme inhibition (Influenza neuraminidase)	infection inhibition in vivo (X31)	Enhancement factor (β) ([1]; inhibition potency compared to monomeric α-2,6-sialyllactose)	Ki ([1]; sialic acid concentration, 4 HAU X31, lowest concentration for 100% inhibition, * = maximum tested concentration, read-out: Ki(HAI) SA) [mM]	Kd [2] [mM]
CC(=O)N[C@H]1[C@H]([C@H](O)[C@H](O)CO)OC(C(=O)O)=C[C@@H]1N=C(N)N [Relenza, Zanamivir]	low	–	–	–	–
CCOC(=O)C1=C[C@@H](OC(CC)CC)[C@H](NC(C)=O)[C@@H](N)C1 [Tamiflu, Oseltamivir]	low	not able to cause potent infection inhibition	–	–	–
CC(=O)N[C@H]1[C@H]([C@H](O)[C@H](O)CO)O[C@@](OC[C@H]2O[C@@H](O[C@H]3[C@H](O)[C@@H](O)C(O)O[C@@H]3CO)[C@H](O)[C@@H](O)[C@H]2O)(C(=O)O)C[C@@H]1O (stereo partly drawn) [α-2,6-sialyllactose]	–	–	1	48.1 ± 1.41	2.5
